According to patent US7786097B2, “Tricyclic compounds, compositions and methods” (Pfizer Inc., priority 2007, dated 2010):

Tests used:
[1] = tested on: Serum osteocalcin; experiment: Serum osteocalcin suppression, 28-day repeat dose mouse model; format: in vivo, Swiss Webster female mice; settings: mice
Procedure: (§1) The compounds were weighed and suspended in a vehicle of 0.5% methylcellulose/0.025% tween 20 (Sigma-Aldrich, St. Louis, Mo.). Compound suspensions were homogenized using a Polytron PT-3100 tissue homogenizer to create a very fine suspension and were then sonicated for 10 minutes using a water bath sonicator. Aliquots of each suspension were made for daily dosing at 0.2 ml/dose. Swiss Webster female mice, 10-12 weeks old, 28-29 grams, (Taconic, Germantown, N.Y.) were used in accordance with the guidelines of the Institutional Animal Care and Use Committee and in accordance with NIH guidelines on laboratory animal welfare. Mice were acclimated in the Pfizer animal facility for three to seven days prior to being utilized in a study. […] Each treatment group contained 5-10 mice. To establish a dosing regimen for the studies, a pilot pharmacodynamic time course experiment was conducted to quantify TNFα repression after a single ED80 dose.
(§2) Body weights were measured on the first and last day of each experiment. Blood samples were obtained after three weeks of dosing for a steady-state pharmacokinetic (PK) analysis. To assess compound effects on LPS-induced TNFα, all mice received an intraperitoneal injection of LPS (Salmonella typhosa, L-7895; Sigma-Aldrich, St. Louis) 2.5 hr after the last dose on day 28. Mice were sacrificed 90 minutes after LPS administration. Serum samples were quantified for osteocalcin and TNFα using the multiplex assays (Linco Research, Inc, St. Charles, Mo.; Luminex 100, Austin, Tex.). Samples were diluted 1:20 and the assay was run according to manufacturer's instructions. The osteocalcin standard was purchased separately (Biomedical Technologies Inc., Stoughton, Mass.). Mice were fasted for 4 hours before serum was collected for TNFα, and osteocalcin levels. For each experiment, outliers were detected by calculating the number of standard deviations from the mean of the group. If the value being examined was more than 2.5 standard deviations from the mean, it was excluded from the rest of the calculations.
(§3) The individual mouse percent inhibition values were fit to a four-parameter logistic model using the dose mean for each group.
(§4) ED50 and ED80 values were obtained for the various endpoints using a four-parameter logistic fit. For compounds which were tested multiple times, ED50 and ED80 values were obtained using four-parameter logistic fits of the combined data from multiple experiments.

[2] = tested on: LPS-induced serum TNFα; experiment: LPS-induced serum TNFα suppression, 28-day repeat dose mouse model; format: in vivo, Swiss Webster female mice; settings: mice, oral gavage 28 days
Procedure: as §1, §2, §3, §4

[3] = tested on: TNFα production in human whole blood; experiment: Ex vivo LPS-stimulated human whole blood, TNFα; format: cell-based; settings: LPS 100 ng/ml, 22 hours, mean of two donors
Procedure: Venous blood from human donors was collected as 10 ml aliquots in tubes containing sodium heparin (BD Vacutainer from Becton Dickinson and Company, Franklin Lakes, N.Y.). Blood was added to sterile polystyrene round bottom 96-well tissue culture plates (Corning Costar) at 100 μl/well, omitting the outside wells. Media (RPMI Medium 1640 with L-glutamine, Invitrogen Corporation, Carlsbad, Calif.) was added to the blood in 90 μl aliquots for a total volume of 190 μl. Outside wells were filled with 200 μl of media. Blood was placed in a humidified 37° C. incubator with 5% CO2 while compounds were prepared (nearly 60 minutes).
Compounds were prepared from 10 mM stock solutions in dimethylsulfoxide (DMSO, Sigma-Aldrich). […] Final DMSO and ethanol concentrations in the assay were 0.1% and 1.5%. The samples were gently triturated twice to mix and replaced in the incubator. LPS stock (E. coli serotype 0111:B4, Sigma-Aldrich), stored in aliquots of 100 μg/ml in RPMI at −20° C., was diluted 1/50 in RPMI to make a working stock solution. After 60 minutes of incubation, 10 μl of the prepared LPS working stock was added to the blood to a final concentration of 100 ng/ml, omitting wells to be used as negative control. The samples were again gently triturated and the plates incubated overnight for 22 hours. Following incubation, the blood was centrifuged at 1500×g for 5 minutes and the plasma removed to either freeze at −20° C. or assay for cytokine release.
IL-1β, IFNγ, IL-6, and TNFα protein levels were measured using Meso Scale assay kits (Meso Scale Discovery, Gaithersburg, Md.). Reagents were allowed to come to room temperature. Meso Scale plates were blocked with 30 μl of human plasma/serum assay diluent with gentle shaking for 60 minutes at room temperature. Plates were washed 3× with wash buffer (PBS, Invitrogen Corporation, with 0.05% Tween-20, Sigma-Aldrich). Calibrators for standard curves were prepared in human plasma/serum assay diluent as a […] serial dilution to achieve final concentrations ranging from 50000 pg/ml to 3.2 pg/ml. Samples and calibrators were added at 20 μl/well, then incubated at room temperature with gentle shaking for 90 minutes. Plates were again washed 3 times with wash buffer. Detection antibody was diluted in human plasma/serum antibody diluent to 1 μg/ml and added to the plate at 20 μl/well. Plates were incubated as before for 60 minutes and washed again. Read Buffer T<4×) was diluted 1:1 with mqH2O to 2 times concentration and 150 μl added to each well. Plates were analyzed on the SECTOR Imager 6000 (Meso Scale Discovery) to generate raw signal values.
IL-1β, IFN-γ, IL-6, and TNFα sample values were verified to be within the calibrator standard curves. Individual values were compared to positive and negative controls (vehicle treated blood with LPS and vehicle treated blood without LPS, respectively) to generate % inhibition. Triplicate values were averaged for each donor. The values for two donors were averaged (only one donor was used for IL-1β) and graphed using 4-parameter fit curves in the GraFit 5.0.11 application.

C[C@]12C=CC(=O)C=C1CC[C@@H]1[C@@H]2[C@@H](O)C[C@@]2(C)[C@H]1CC[C@]2(O)C(=O)CO [Prednisolone]
Serum osteocalcin EAUC50 ([1]; AUC 0-4 hr): 560 ng·h/mL | Serum osteocalcin EAUC80 ([1]; AUC 0-4 hr): 1600 ng·h/mL | Osteocalcin Suppression (ED80 dose) ([1]; oral gavage 28 days, serum osteocalcin): 6.80 mg/kg | TNFα Suppression (ED80 dose) [2]: 2.10 mg/kg | inhibition at 0.00137174 µM ([3]; 1.371742 nM): 6.61% | inhibition at 0.00411523 µM ([3]; 4.115226 nM): 5.31% | inhibition at 0.0123457 µM ([3]; 12.34568 nM): 12.9% | inhibition at 0.037037 µM ([3]; 37.03704 nM): 27.7% | inhibition at 0.111111 µM ([3]; 111.1111 nM): 62.4% | inhibition at 0.333333 µM ([3]; 333.3333 nM): 89% | inhibition at 1 µM ([3]; 1000 nM): 93.9%
